From publication PMC11566621 (Stem Cell Research & Therapy, 2024)

Target: KLF4 (Kruppel-Like Factor 4) (Homo sapiens, UniProt O43474)
Assay: SPR
Assay type: binding

Sequence of KLF4 (Kruppel-Like Factor 4) (O43474 whole entry): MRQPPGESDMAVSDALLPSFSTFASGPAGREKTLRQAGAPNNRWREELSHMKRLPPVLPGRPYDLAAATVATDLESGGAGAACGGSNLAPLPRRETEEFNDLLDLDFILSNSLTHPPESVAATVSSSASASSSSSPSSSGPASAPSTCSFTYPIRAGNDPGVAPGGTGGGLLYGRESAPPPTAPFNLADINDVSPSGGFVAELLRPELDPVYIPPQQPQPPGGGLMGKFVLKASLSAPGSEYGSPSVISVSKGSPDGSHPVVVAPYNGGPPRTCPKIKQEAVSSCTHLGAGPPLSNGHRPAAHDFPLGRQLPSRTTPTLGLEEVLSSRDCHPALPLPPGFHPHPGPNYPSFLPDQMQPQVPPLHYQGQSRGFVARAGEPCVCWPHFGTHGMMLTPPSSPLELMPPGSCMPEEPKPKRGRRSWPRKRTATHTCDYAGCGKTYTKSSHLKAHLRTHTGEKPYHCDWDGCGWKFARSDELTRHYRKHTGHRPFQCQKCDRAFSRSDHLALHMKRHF

For C[C@@H]1O[C@@H](O[C@H]2C(=O)c3c(O)cc(O)cc3O[C@@H]2c2ccc(O)c(O)c2)[C@H](O)[C@H](O)[C@H]1O [Astilbin], the Kd was 48.9 µM.
